This is an account of results in ChEMBL document CHEMBL3507680, “University of Dundee, Gates Library screen for HepG2 cell viability”.

Each structure is given as a SMILES string. Several values for one entry are separate records, joined by “and”; a condition that tells them apart may be missing. Equal entries are not always repeated.

The nature of one data set: Human HepG2 cell viability assay in 384 well format. The data set is classed as toxicity, cell-based. Set-up: dose 125 nL, time 70.5 hour; concentration not given beside the values. To be noted: HepG2 cells, read-out: Inhibition.
In the case of `O=C(CN1CCc2sccc2C1)Nc1ccnc2ccnn12`, the cytotoxicity at 70.5 h worked out at 74.2%.
On to `Cn1nccc1CN1CCOC(c2cccc(Nc3ccccn3)n2)C1` (stereo not given), for which the cytotoxicity at 70.5 h was determined as 84.1%.
As for `c1ccc(CCN2CCCC2c2cccc(Nc3nccs3)n2)cc1` (stereo not given), the cytotoxicity at 70.5 h is 70.3%.
As for `Oc1cc(C2CCCN(Cc3cccs3)C2)nc(-c2ccccn2)n1` (stereo not given), the cytotoxicity at 70.5 h stood at 60.4%.
Consider `CC(C)(C)c1nccc(C2(c3ccccc3Cl)CCNCC2)n1`, for which the cytotoxicity at 70.5 h is 78.4%.
Regarding `CCn1cc(CN(C)S(=O)(=O)c2ccc(Cl)cc2)cn1`, the cytotoxicity at 70.5 h worked out at 108%.
On the same count and under the same terms, in the case of `CNc1cc(C2CN(Cc3scnc3C)CCO2)nc(C)n1` (stereo not given) it was 98.7%.
For `Oc1cc(C2CCCCN2Cc2cccs2)nc(-c2ccccn2)n1` (stereo not given), the cytotoxicity at 70.5 h stood at 64.3%.
Regarding `CNc1nc(C)cc(NCc2cc(C)cc3c(C)c(C)[nH]c23)n1`, the cytotoxicity at 70.5 h was 98.8%.
Consider `CN(CCC(F)(F)F)C(=O)C1CSCN1C(=O)C(C)(C)C` (stereo not given), for which the cytotoxicity at 70.5 h is 100%.
Regarding `O=C(Nc1nccs1)c1csc(NC2CCCC2)n1`, the cytotoxicity at 70.5 h came out at 62%.
Turning to `CCc1ncc2c(n1)CN(Cc1ncc(C(C)(C)C)o1)CC2`, the cytotoxicity at 70.5 h is 60.9%.
As for `O=C(O)C(F)(F)F.O=C1COC2(CCN(CC3CCC3)CC2)CN1c1cncnc1`, the cytotoxicity at 70.5 h is 61.5%.
On the same count and under the same terms, in the case of `Cc1cnc(Nc2cccc(C3CCCN3Cc3cn(C)nc3C)n2)s1` (stereo not given) it was 76%.
For the compound `N#Cc1ccc(NCCNc2ccc(C(F)(F)F)cn2)nc1`, the cytotoxicity at 70.5 h amounted to 101%.
As for `C/N=C1/c2cc3cc(OC)ccc3n2CCN1Cc1ccccc1.Cl`, the cytotoxicity at 70.5 h turned out to be 61.3%.
Take `c1ccc(OCC2CC3(CCN(CC4CCOCC4)CC3)CO2)nc1` (stereo not given): the cytotoxicity at 70.5 h worked out at 62.9%.
Same read-out and setting: in the case of `NC(CC1CCCC1)c1ccc(Oc2ccccc2)cc1` (stereo not given) it was 99%; in that of `Cl.Cn1ccnc1N1CCN(C(=O)Cc2ccc(F)cc2)CC1`, 75%.
Take `Cc1ccccc1CN1CCCC1c1cccc(Nc2nccs2)n1` (stereo not given): the cytotoxicity at 70.5 h was 70.5%.
Take `CCCc1cc(=O)[nH]c(-n2nc(C3CC3)cc2N)n1`: the cytotoxicity at 70.5 h came to 65.9%.
Consider `Cl.Cl.Clc1cccc(C[C@@H]2NCCC[C@@H]2Nc2ccccc2)c1`, for which the cytotoxicity at 70.5 h was 104%.
Turning to `CC(C)Cc1ccc(S(=O)(=O)Nc2ccc(=O)n(C)c2)cc1`, the cytotoxicity at 70.5 h worked out at 71.6%.
On the same count and under the same terms, in the case of `COc1ccc(C)cc1CN1CCC(c2cc3ncccc3cn2)CC1.Cl` it was 105%; in that of `Cc1cc(NC2CCc3ncnn3C2)n2nc(C(F)(F)F)nc2n1` (stereo not given), -95.5%; in that of `Cc1cccc(CN2CCC(C3Nc4ccccc4S(=O)(=O)N3)CC2)n1` (stereo not given), -2.6%.
On the same count and under the same terms, under `CN(C)C(=O)c1ccc2c(c1)N(C)C(CC(=O)NC(CO)CO)CO2` (stereo not given) stands -7.74%; under `CC(c1ccccc1)N(C)C(=O)CN1CCN(c2cnccn2)CC1` (stereo not given), -16.2%; under `O=C(NC1(c2nnn(CCO)n2)CCCC1)c1ccccc1`, -1.16%.
As for `CCO[C@H]1COC[C@@H]1NC(=O)c1c[nH]nc1C1CCCCC1`, the cytotoxicity at 70.5 h turned out to be 19.5%.
In the case of `CC(C)(Oc1ccc(C(N)=O)cc1)C(=O)N(CCC#N)C1CC1`, the cytotoxicity at 70.5 h was -1.36%.

Another data set can be described thus: Human HepG2 cell viability dose-response assay. Type of data set: toxicity, cell-based.
Conditions: not given
Turning to `O=C(CN1CCc2sccc2C1)Nc1ccnc2ccnn12`, the BOTTOM is -24.28 and -16.58; the HILLSLOPE was 0.9799 and 1.026; the TOP came out at 100; the pXC50 is 5.87 and 5.888.
For the compound `Cn1nccc1CN1CCOC(c2cccc(Nc3ccccn3)n2)C1` (stereo not given), the HILLSLOPE was 6.527 and 3.177; the TOP was 100.3 and 104.2; the pXC50 is 5.026 and 5.036.
In the case of `c1ccc(CCN2CCCC2c2cccc(Nc3nccs3)n2)cc1` (stereo not given), the BOTTOM was -11.18 and -9.985; the HILLSLOPE was 1.416 and 1.359; the TOP amounted to 100; the pXC50 is 5.661 and 5.625.
Turning to `Oc1cc(C2CCCN(Cc3cccs3)C2)nc(-c2ccccn2)n1` (stereo not given), the BOTTOM was -7.306 and -6.343; the HILLSLOPE is 1.489 and 1.356; the TOP was 100; the pXC50 is 4.83 and 4.808.
For the compound `CC(C)(C)c1nccc(C2(c3ccccc3Cl)CCNCC2)n1`, the BOTTOM was 9.625 and 4.047; the HILLSLOPE is 4.667 and 5.549; the TOP is 104.8 and 103.4; the pXC50 is 5.031 and 5.028.
Turning to `CCn1cc(CN(C)S(=O)(=O)c2ccc(Cl)cc2)cn1`, the BOTTOM turned out to be 0, the HILLSLOPE turned out to be 0, the TOP is 0 and the pXC50 is recorded as < 4.53.
`CNc1cc(C2CN(Cc3scnc3C)CCO2)nc(C)n1` (stereo not given): the HILLSLOPE was 1.929 and 1.812; the TOP is 107.3 and 109.8; the pXC50 is 4.988 and 5.003.
Take `Oc1cc(C2CCCCN2Cc2cccs2)nc(-c2ccccn2)n1` (stereo not given): the BOTTOM was -3.23 and -7.213; the HILLSLOPE is 1.278 and 1.267; the TOP is recorded as 100; the pXC50 is 5.076 and 5.09.
In the case of `CNc1nc(C)cc(NCc2cc(C)cc3c(C)c(C)[nH]c23)n1`, the BOTTOM is -7.457 and -8.772; the HILLSLOPE is 3.23 and 3.681; the TOP is 100 and 99.18; the pXC50 is 5.482 and 5.451.
As for `CN(CCC(F)(F)F)C(=O)C1CSCN1C(=O)C(C)(C)C` (stereo not given), the BOTTOM is 0, the HILLSLOPE is given as 0, the TOP came out at 0 and the pXC50 is recorded as < 4.53.
In the case of `O=C(Nc1nccs1)c1csc(NC2CCCC2)n1`, the BOTTOM is -10.16 and -7.056; the HILLSLOPE was 0.9548 and 1.411; the TOP was found to be 100; the pXC50 is 4.822 and 4.869.
For the compound `CCc1ncc2c(n1)CN(Cc1ncc(C(C)(C)C)o1)CC2`, the BOTTOM was 0, the HILLSLOPE is listed as 0, the TOP was 0 and the pXC50 is < 4.53.
As for `O=C(O)C(F)(F)F.O=C1COC2(CCN(CC3CCC3)CC2)CN1c1cncnc1`, the BOTTOM was 0, the HILLSLOPE was determined as 0, the TOP worked out at 0 and the pXC50 is < 4.53.
As to `Cc1cnc(Nc2cccc(C3CCCN3Cc3cn(C)nc3C)n2)s1` (stereo not given), the BOTTOM was -7.108 and -9.894; the HILLSLOPE is 1.821 and 1.15; the TOP was 87.64 and 100; the pXC50 is 5.777 and 5.662.
For the compound `N#Cc1ccc(NCCNc2ccc(C(F)(F)F)cn2)nc1`, the BOTTOM was -5.895 and -10.21; the HILLSLOPE is 4.246 and 4.413; the TOP is 101.3 and 101.1; the pXC50 is 5.913 and 5.918.
For the compound `C/N=C1/c2cc3cc(OC)ccc3n2CCN1Cc1ccccc1.Cl`, the BOTTOM was -4.849 and -8.854; the HILLSLOPE is 2.411 and 1.684; the TOP is 87.09 and 100; the pXC50 was 5.148 and 5.086.
In the case of `c1ccc(OCC2CC3(CCN(CC4CCOCC4)CC3)CO2)nc1` (stereo not given), the BOTTOM was determined as 0, the HILLSLOPE worked out at 0, the TOP is 0 and the pXC50 is < 4.53.
Turning to `NC(CC1CCCC1)c1ccc(Oc2ccccc2)cc1` (stereo not given), the BOTTOM is -5.453 and -5.719; the HILLSLOPE is 5.268 and 5.002; the TOP is 102.6 and 103.1; the pXC50 is 5.226 and 5.224.
Consider `Cl.Cn1ccnc1N1CCN(C(=O)Cc2ccc(F)cc2)CC1`, for which the BOTTOM is 0, the HILLSLOPE is 0, the TOP is given as 0 and the pXC50 is recorded as < 4.53.
Consider `Cc1ccccc1CN1CCCC1c1cccc(Nc2nccs2)n1` (stereo not given), for which the BOTTOM was -34.71 and -42.55; the HILLSLOPE was 0.815 and 0.7597; the TOP was determined as 100; the pXC50 is 6.34 and 6.398.
For `CCCc1cc(=O)[nH]c(-n2nc(C3CC3)cc2N)n1`, the BOTTOM stood at 0, the HILLSLOPE stood at 0, the TOP is recorded as 0 and the pXC50 was < 4.53.
As for `Cl.Cl.Clc1cccc(C[C@@H]2NCCC[C@@H]2Nc2ccccc2)c1`, the BOTTOM was -6.539 and -3.827; the HILLSLOPE is 13.96 and 17.86; the TOP is listed as 101.8; the pXC50 is 5.306 and 5.329.
As for `CC(C)Cc1ccc(S(=O)(=O)Nc2ccc(=O)n(C)c2)cc1`, the BOTTOM was 0, the HILLSLOPE turned out to be 0, the TOP was 0 and the pXC50 is listed as < 4.53.
As for `COc1ccc(C)cc1CN1CCC(c2cc3ncccc3cn2)CC1.Cl`, the BOTTOM was -3.004 and -4.306; the HILLSLOPE was 10.96 and 6.205; the TOP was 101.8 and 102.1; the pXC50 is 5.072 and 5.187.
